pIC50: −log10 of the molar value.
Key:
[1] = tested on: MEL270 uveal melanoma cells; assay: MTS cell viability, MEL270; type: cell-based, human; conditions: 4 days
Procedure: (§1) All human cancer cell lines were maintained in RPMI media supplemented with 5% (lung and breast cancer cells) or 10% (melanoma cells) fetal bovine serum. […] Human mammary epithelial cells immortalised with telomerase were maintained in complete MEGM media from Cambrex (East Rutherford, NJ, USA).
(§2) Absorbance at 490 and 650 nm (reference wavelength) was measured by a Spectra Max (Molecular Devices, Sunnyvale, CA, USA) or a FlouroStar Omega (BMG Biosciences, Ortenberg, Germany) plate reader. Data were normalised to the untreated controls (100% viability). Each cell line was tested in 1–5 independent assays, each containing 4–8 replicates. IC50 values were calculated using DIVISA, a high-throughput software, developed in-house (manuscript in preparation), for storing and analysing drug sensitivity assays. Dose–response curves were plotted using a non-linear regression model and IC50s were determined from the fitted curves.

H1437 cells = assay: MTS cell viability, H1437; type: cell-based, human; conditions: H1437 NSCLC, MTS, 4 days
Procedure: as §1, §2

[2] = tested on: 1585T immortalised normal human mammary epithelial cells; assay: MTS cell viability, 1585T; type: cell-based; conditions: 4 days
Procedure: as §1, §2

HCC1500 cells = assay: MTS cell viability, HCC1500; type: cell-based, human; conditions: HCC1500 breast cancer line, 4 days
Procedure: as §1, §2

H2073 cells = assay: MTS cell viability, H2073; type: cell-based, human; conditions: H2073 NSCLC, MTS, 4 days
Procedure: as §1, §2

SKMEL5 melanoma cells = assay: MTS cell viability, SKMEL5; type: cell-based, human; conditions: 4 days
Procedure: as §1, §2

H292 cells = assay: MTS cell viability, H292; type: cell-based, human; conditions: H292 NSCLC, 4 days
Procedure: as §1, §2

H1299 cells = assay: MTS cell viability, H1299; type: cell-based, human; conditions: H1299 NSCLC, 4 days
Procedure: as §1, §2

[3] = tested on: histone 4 acetylation in H358 cells; assay: Western blot, acetylated histone 4; type: cell-based, human; conditions: 4 h
Procedure: (§3) Exponentially growing cells were treated with the appropriate compounds and harvested 4 or 24 h later in a standard nuclear lysis buffer and whole cell lysates were quantified. Equal amounts of total protein were loaded onto 4–12% Bis-Tris SDS gels and subjected to electrophoresis. After transferring onto nitrocellulose membranes, blots were probed for acetylated tubulin (Sigma, St Louis, MO, USA; T6793), acetylated histone 3 (Millipore/Upstate #06-599), acetylated histone 4 (Millipore/Upstate #07-329) or trimethylated histone 3 at lysine 9 (Millipore/Upstate #07-523). Actin (Santa Cruz, Santa Cruz, CA, USA; #1616) and HDAC1 (Affinity Bioreagents, Rockford, IL, USA; #PA1-860) were probed as loading controls. Quantification of bands in films was performed using two independent methods, which yielded similar results, Image J (NIH public software) and Quantity one (Bio-Rad, Hercules, CA, USA). The average of the two methods±s.e.m. is shown as specified in figure legends. For the MDR western analysis, a primary antibody against P-glycoprotein from Calbiochem (Darmstadt, Germany) was used according to the manufacturer's recommendations and HSP90 (Santa Cruz) was used as a loading control.

[4] = tested on: HBEC30KT human bronchial epithelial cells; assay: MTS cell viability, HBEC30KT; type: cell-based; conditions: HBEC30KT (normal, matched to HCC4017), 4 days
Procedure: as §1, §2

H2009 cells = assay: MTS cell viability, H2009; type: cell-based, human; conditions: H2009 NSCLC, 4 days
Procedure: as §1, §2

LOXIMVI melanoma cells = assay: MTS cell viability, LOXIMVI; type: cell-based, human; conditions: LOXIMVI melanoma, 4 days
Procedure: as §1, §2

H2085 cells = assay: MTS cell viability, H2085; type: cell-based, human; conditions: H2085 NSCLC, 4 days
Procedure: as §1, §2

MCF-7 cells = assay: MTS cell viability, MCF-7; type: cell-based, human; conditions: 4 days; for pIC50: MCF-7 breast cancer line
Procedure: as §1, §2

H1395 cells = assay: MTS cell viability, H1395; type: cell-based, human; conditions: H1395 NSCLC, 4 days
Procedure: as §1, §2

MCF-10 cells = assay: MTS cell viability, MCF-10; type: cell-based, human; conditions: MCF-10, MTS, 4 days
Procedure: as §1, §2

Melanocytes = assay: MTS cell viability, primary melanocytes; type: cell-based, human; conditions: 4 days
Procedure: as §1, §2

H1993 cells = assay: MTS cell viability, H1993; type: cell-based, human; conditions: H1993 NSCLC, MTS, 4 days
Procedure: as §1, §2

UACC62 melanoma cells = assay: MTS cell viability, UACC62; type: cell-based, human; conditions: 4 days
Procedure: as §1, §2

[5] = tested on: HBEC3KT human bronchial epithelial cells; assay: MTS cell viability, HBEC3KT; type: cell-based; conditions: 4 days
Procedure: as §1, §2

[6] = tested on: 348T immortalised normal human mammary epithelial cells; assay: MTS cell viability, 348T; type: cell-based; conditions: 4 days
Procedure: as §1, §2

H1355 cells = assay: MTS cell viability, H1355; type: cell-based, human; conditions: H1355 NSCLC, 4 days
Procedure: as §1, §2

HCC15 cells = assay: MTS cell viability, HCC15; type: cell-based, human; conditions: HCC15 NSCLC, MTS, 4 days
Procedure: as §1, §2

[7] = tested on: HBEC34KT human bronchial epithelial cells; assay: MTS cell viability, HBEC34KT; type: cell-based; conditions: HBEC34KT (normal, matched to HCC4018), 4 days
Procedure: as §1, §2

[8] = tested on: histone 3 trimethylated at lysine 9 in H358 cells; assay: Western blot, histone 3 lysine 9 trimethylation; type: cell-based, human
Procedure: as §3

[9] = tested on: OMM2.3 uveal melanoma cells; assay: MTS cell viability, OMM2.3; type: cell-based, human; conditions: 4 days
Procedure: as §1, §2

A549 cells = assay: MTS cell viability, A549; type: cell-based, human; conditions: A549 NSCLC, 4 days
Procedure: as §1, §2

[10] = tested on: HBEC16KT human bronchial epithelial cells; assay: MTS cell viability, HBEC16KT; type: cell-based; conditions: 4 days
Procedure: as §1, §2

[11] = tested on: HCC4017 lung cancer cells; assay: MTS cell viability, HCC4017; type: cell-based, human; conditions: HCC4017 (lung cancer, matched to HBEC30KT), MTS, 4 days
Procedure: as §1, §2

[12] = tested on: HCC4018 lung cancer cells; assay: MTS cell viability, HCC4018; type: cell-based, human; conditions: HCC4018 (lung cancer, matched to HBEC34KT), MTS, 4 days
Procedure: as §1, §2

[13] = tested on: OCM1 uveal melanoma cells; assay: MTS cell viability, OCM1; type: cell-based, human; conditions: 4 days
Procedure: as §1, §2

HCC1954 cells = assay: MTS cell viability, HCC1954; type: cell-based, human; conditions: HCC1954 breast cancer line, 4 days
Procedure: as §1, §2

Compound: C/C=C1\NC(=O)[C@H]2CSSCC/C=C/[C@H](CC(=O)N[C@H](C(C)C)C(=O)N2)OC(=O)[C@H](C(C)C)NC1=O [Depsipeptide, depsipeptide]
- pIC50 [1]: 8.74
- pIC50 (H1437 cells): 9.30
- pIC50 [2]: 8.89
- pIC50 (HCC1500 cells): 8.82
- pIC50 (H2073 cells): 7.43
- pIC50 (SKMEL5 melanoma cells): 8.82
- pIC50 (H292 cells): 9.15
- pIC50 (H1299 cells): 7.92
- global level of histone 4 acetylation ([3]; 25 nM): globally increased
- pIC50 [4]: 9.05
- pIC50 (H2009 cells): 9.05
- pIC50 (LOXIMVI melanoma cells): 8.92
- pIC50 (H2085 cells): 8.16
- surviving population (MCF-7 cells; MCF7 cells): 30–40%
- pIC50 (MCF-7 cells): 8.38
- pIC50 (H1395 cells): 8.28
- pIC50 (MCF-10 cells): 8.62
- pIC50 (Melanocytes): 9.05
- pIC50 (H1993 cells): 8.92
- pIC50 (UACC62 melanoma cells): 9.05
- pIC50 [5]: 9.00
- pIC50 [6]: 8.89
- pIC50 (H1355 cells): 8.74
- pIC50 (HCC15 cells): 8.19
- pIC50 [7]: 8.89
- global level of histone 3 trimethylated at lysine 9 ([8]; 25 nM): reproducibly decreased
- pIC50 [9]: 8.57
- pIC50 (A549 cells): 8.70
- pIC50 [10]: 8.31
- pIC50 [11]: 8.19
- pIC50 [12]: 8.38
- pIC50 [13]: 8.26
- pIC50 (HCC1954 cells): 8.82

Compound: CC(/C=C/C(=O)NO)=C\[C@@H](C)C(=O)c1ccc(N(C)C)cc1 [TSA, trichostatin A]
- pIC50 [1]: 7.17
- pIC50 (H1437 cells): 6.72
- pIC50 [2]: 6.91
- pIC50 (HCC1500 cells): 7.54
- pIC50 (H2073 cells): 7.20
- pIC50 (SKMEL5 melanoma cells): 7.18
- pIC50 (H292 cells): 7.65
- pIC50 (H1299 cells): 6.82
- global level of histone 4 acetylation ([3]; 200 nM): globally increased
- pIC50 [4]: 6.55
- pIC50 (H2009 cells): 7.42
- pIC50 (LOXIMVI melanoma cells): 7.24
- pIC50 (H2085 cells): 6.41
- pIC50 (MCF-7 cells): 7.05
- pIC50 (H1395 cells): 7.39
- pIC50 (MCF-10 cells): 7.02
- pIC50 (Melanocytes): 6.55
- pIC50 (H1993 cells): 7.03
- pIC50 (UACC62 melanoma cells): 6.62
- pIC50 [5]: 6.50
- pIC50 [6]: 7.09
- pIC50 (H1355 cells): 6.97
- pIC50 (HCC15 cells): 8.10
- pIC50 [7]: 6.46
- global level of histone 3 trimethylated at lysine 9 ([8]; 200 nM): no effect
- pIC50 [9]: 7.09
- pIC50 (A549 cells): 7.40
- pIC50 [10]: 6.59
- pIC50 [11]: 7.14
- pIC50 [12]: 7.64
- pIC50 [13]: 6.73
- pIC50 (HCC1954 cells): 7.04
